This is an account of results in paper PMC11243039, “Antimicrobial, Antioxidant, and Antityrosinase Activities of Morina persica L. and Its Isolated Compounds” (Molecules, 2024).

The assay addresses T1, mushroom tyrosinase.
T1 construct: gene PPO3; native mushroom enzyme preparation
Briefly: absorbance at […] nm, L-DOPA oxidation (modified Masuda method). The format is biochemical. Conditions: L-DOPA substrate, phosphate buffer pH 6.8, 23 °C, 10 min preincubation.

Converted amounts (≈) assume the structure as drawn.

Usually IC50 stands for the point on the concentration scale where inhibition reaches its midpoint. High values mean lower potency, low ones higher potency. For `O=c1c(O[C@@H]2O[C@H](CO)[C@@H](O)[C@H](O)[C@H]2O)c(-c2ccc(O)cc2)oc2cc(O)cc(O)c12` [MP-1, Kaempferol-3-O-β-glucopyranoside], the “IC50” value worked out at 297.9 ± 1.2 µg/mL (≈ 664 µM).
Turning to `C[C@@H]1O[C@@H](OC[C@H]2O[C@@H](Oc3c(-c4ccc(O)c(O)c4)oc4cc(O)cc(O)c4c3=O)[C@H](O)[C@@H](O)[C@@H]2O)[C@H](O)[C@H](O)[C@H]1O` [MP-2, Quercetin-3-O-rutinoside], the half-inhibitory concentration (IC50) is 115.2 ± 0.8 µg/mL (≈ 189 µM).
